Here are results for 17 molecules from ChEMBL document CHEMBL1212701, “Identification of small molecules rescuing fragile X syndrome phenotypes in Drosophila” (2008).

Active and inactive are the calls of the source. The calls are words filed in the database; no cut-off is given here.

In test [1] the test system is Drosophila. Description: Protection against fragile X syndrome phenotypes in Fmr1 null mutant Drosophila Fmr1'3/TM6C assessed as embryo viability at 40 uM at 25 degC by flow cytometry relative to untreated homozygous embryos. The class given is functional. Background: A flow cytometer gives signals particle by particle.
Test [2] deals with Drosophila. Description: Cytoprotection against glutamate-induced toxicity in laboratory prepared food feeded Fmr1 null mutant Drosophila Fmr1'3/TM6C fragile X syndrome model assessed as embryo viability at 40 uM in presence of GABAB receptor antagonist CGP-54626 by flow cytometry relative to untreated embryos. The test is classed as functional.
In test [3] the test system is Drosophila. Nature of the test: Cytoprotection against glutamate-induced toxicity in laboratory prepared food feeded Fmr1 null mutant Drosophila Fmr1'3/TM6C fragile X syndrome model assessed as genetic segregation ratio at 40 uM by flow cytometry relative to untreated embryos. The class given is functional.
In test [4] the test system is Drosophila. Description: Protection against fragile X syndrome phenotypes in laboratory prepared food feeded Fmr1 null mutant Drosophila Fmr1'3/TM6C assessed as homozygous Fmr1-/- embryo viability at 40 uM at 25 degC by flow cytometry relative to untreated homozygous embryos fed with only laboratory prepared food. The class given is functional.
Test [5] concerns Drosophila. Nature of the test: Cytoprotection against glutamate-induced toxicity in laboratory prepared food feeded Fmr1 null mutant Drosophila Fmr1'3/TM6C fragile X syndrome model assessed as embryo viability at 40 uM by flow cytometry relative to untreated embryos. The class given is functional, organism-based.
The test system of test [6] is Drosophila. Description: Suppression of glutamate-induced beta-lobe midline crossing deffect in mushroom bodies of laboratory prepared food feeded Fmr1 null mutant Drosophila Fmr1'3/TM6C fragile X syndrome model assessed as incidence of severe deffects at 40 uM by Fas2 staining based confocal microscopy. The test is classed as functional.
The test system of test [7] is Drosophila. Description: Suppression of glutamate-induced Futsch protein overexpression in head lysates of laboratory prepared food feeded Fmr1 null mutant Drosophila Fmr1'3/TM6C fragile X syndrome model at 40 uM by Western blot. The test is classed as functional, organism-based. (A western blot detects proteins with antibodies after separation by electrophoresis.)

Test [8] relates to Drosophila. Nature of the test: Suppression of glutamate-induced beta-lobe midline crossing deffect in mushroom bodies of laboratory prepared food feeded Fmr1 null mutant Drosophila Fmr1'3/TM6C fragile X syndrome model at 40 uM by Fas2 staining based confocal microscopy. The class given is functional.
The subject of test [9] is Drosophila. Nature of the test: Suppression of glutamate-induced courtship behavior deffect in laboratory prepared food feeded male Fmr1 null mutant Drosophila Fmr1'3/TM6C fragile X syndrome model assessed as courtship behavior towards female flies at 40 uM for 10 mins by courtship index assay. The class given is functional, organism-based.
Test [10] has as its system Drosophila. Description: Suppression of Futsch protein overexpression in head lysates of laboratory prepared food feeded Fmr1 null mutant Drosophila Fmr1'3/TM6C fragile X syndrome model at 40 uM by Western blot. The class given is functional, organism-based.
Test [11] relates to Drosophila. Description: Suppression of beta-lobe midline crossing deffect in mushroom bodies of laboratory prepared food feeded Fmr1 null mutant Drosophila Fmr1'3/TM6C fragile X syndrome model at by Fas2 staining based confocal microscopy. The class given is functional.
For test [12], the system named is Drosophila. Nature of the test: Protection against fragile X syndrome phenotypes in laboratory prepared food feeded Fmr1 null mutant Drosophila Fmr1'3/TM6C assessed as homozygous Fmr1-/- embryo viability at 10 uM at 25 degC by flow cytometry relative to untreated homozygous embryos fed with only laboratory prepared food. The class given is functional.
Test [13] relates to Drosophila. Nature of the test: Suppression of glutamate-induced courtship behavior deffect in laboratory prepared food feeded male Fmr1 null mutant Drosophila Fmr1'3/TM6C fragile X syndrome model assessed as courtship behavior towards female flies at 80 uM for 10 mins by courtship index assay. The class given is functional, organism-based.
For test [14], the system named is Drosophila. Description: Suppression of glutamate-induced beta-lobe midline crossing deffect in mushroom bodies of laboratory prepared food feeded Fmr1 null mutant Drosophila Fmr1'3/TM6C fragile X syndrome model at 80 uM by Fas2 staining based confocal microscopy. The class given is functional, organism-based.
The subject of test [15] is Drosophila. Description: Cytoprotection against glutamate-induced toxicity in laboratory prepared food feeded Fmr1 null mutant Drosophila Fmr1'3/TM6C fragile X syndrome model assessed as embryo viability at 80 uM by flow cytometry relative to untreated embryos. The test is classed as functional, organism-based.
The subject of test [16] is Drosophila. Nature of the test: Protection against fragile X syndrome phenotypes in laboratory prepared food feeded Fmr1 null mutant Drosophila Fmr1'3/TM6C assessed as homozygous Fmr1-/- embryo viability at 20 uM at 25 degC by flow cytometry relative to untreated homozygous embryos fed with only laboratory prepared food. The test is classed as functional.
The test system of test [17] is Drosophila. Description: Suppression of Futsch protein overexpression in head lysates of laboratory prepared food feeded Fmr1 null mutant Drosophila Fmr1'3/TM6C fragile X syndrome model at 40 uM in presence of Scopolamine by Western blot. The class given is functional, organism-based.
In test [18] the test system is Drosophila. Description: Protection against fragile X syndrome phenotypes in laboratory prepared food feeded Fmr1 null mutant Drosophila Fmr1'3/TM6C assessed as homozygous Fmr1-/- embryo viability at 5 uM at 25 degC by flow cytometry relative to untreated homozygous embryos fed with only laboratory prepared food. The class given is functional.
Test [19] relates to Drosophila. Description: Cytoprotection against glutamate-induced toxicity in laboratory prepared food feeded Fmr1 null mutant Drosophila Fmr1'3/TM6C fragile X syndrome model assessed as embryo viability at 40 uM in presence of 40 uM GABAB receptor antagonist CGP-54626 by flow cytometry relative to untreated embryos. The class given is functional, organism-based.

For the molecule `Cc1cc(O)cc(C)c1Cl` [CHLOROXYLENOL], in the test on Drosophila [1], the Activity amounted to 42%.

Turning to `NCCCC(=O)O` [GAMMA-AMINOBUTYRIC ACID], the Activity in the test with Drosophila [2] is 8%; with Drosophila [3], 33%; with Drosophila [4] it was 83.1%; in the test with Drosophila [1], 25%; with Drosophila [6], 7%; in the test with Drosophila [8], 70%. The outcome with Drosophila [5], in the test with Drosophila [7] and in the test with Drosophila [9] was Active.

Take `CN1CC(=O)NC1=N` [CREATININE]: the values for the Activity in the test on Drosophila [4], with Drosophila [1] and with Drosophila [11] were 123.2%, 58% and 69%, respectively. The result in the test on Drosophila [10] was Active.

With `CC(=O)N[C@@H](CS)C(=O)O` [ACETYLCYSTEINE], in the test on Drosophila [1], the Activity worked out at 67%.

As to `O=c1cc(CO)occ1O` [KOJIC ACID], the Activity in the test with Drosophila [12] came out at 73.06%; in the test on Drosophila [1] it was 25%.

With `Cc1cccc(C#Cc2ccccc2)n1`, the result with Drosophila [13], in the test with Drosophila [14] and in the test with Drosophila [15] was Active. For the same molecule, the Activity with Drosophila [12] is recorded as 61.6%.

Turning to `O=C(O)C1CCCNC1` (stereo not given) [NIPECOTIC ACID], the Activity with Drosophila [4] is 84.2%; in the test on Drosophila [1], 58%; with Drosophila [11], 69%. In addition, the result in the test with Drosophila [10] was Active.

Take `Cl.Cl.NNCc1cccc(O)c1`: in the test with Drosophila [1], the Activity is recorded as 67%.

For the molecule `C[C@@H](CO)NC(=O)[C@@H]1C=C2c3cccc4[nH]cc(c34)C[C@H]2N(C)C1.O=C(O)/C=C\C(=O)O` [ERGONOVINE MALEATE], the Activity in the test on Drosophila [1] is listed as 33%; with Drosophila [16], 69.85%.

On to `Cl.NCC(=O)c1ccccc1` [PHENACYLAMINE HYDROCHLORIDE], for which, in the test on Drosophila [1], the Activity stood at 25%.

Turning to `CC[C@@H]1C(=O)OC[C@@H]1Cc1cncn1C.O=[N+]([O-])O` [PILOCARPINE NITRATE], the result in the test with Drosophila [17] was inactive. The Activity is 68.5% with Drosophila [18], 33% in the test on Drosophila [1] and 69% in the test with Drosophila [11]. In addition, the result in the test with Drosophila [10] was Active.

Take `CN1[C@@H]2CC[C@H]1C[C@@H](OC(c1ccccc1)c1ccccc1N)C2` (stereo not given in full) [AMINOBENZTROPINE]: the Activity with Drosophila [4] came out at 66.38%; with Drosophila [1], 25%. The result with Drosophila [10] and in the test on Drosophila [19] was Active.

For `COC(=O)[C@H]1[C@H]2C[C@@H]3c4[nH]c5cc(OC)ccc5c4CCN3C[C@H]2C[C@@H](OC(=O)c2cc(OC)c(OC)c(OC)c2)[C@@H]1OC` [RESERPINE], in the test on Drosophila [1], the Activity stood at 25%.

For the molecule `C[C@H](NC[C@H](O)CP(=O)(O)CC1CCCCC1)c1ccc(Cl)c(Cl)c1`, the result in the test on Drosophila [5] was inactive.

`Cl.NCCc1ccc(O)c(O)c1` [DOPAMINE HYDROCHLORIDE]: the Activity in the test with Drosophila [1] turned out to be 25%.

As to `CCN(CC)CCOc1ccc(C(=C(Cl)c2ccccc2)c2ccccc2)cc1` [CLOMIPHENE], the Activity amounted to 54.96% in the test on Drosophila [18] and 25% with Drosophila [1].

Take `C/C=C(/C(=C/C)c1ccc(O)cc1)c1ccc(O)cc1` [DIENESTROL]: the Activity with Drosophila [4] was found to be 71.3%; in the test with Drosophila [1] it was 33%.
